Converted amounts (≈) assume the structure as drawn.
Key:
[1] = Induction of mitophagy in human HeLa MKYP cells treated with FCCP/oligomycin for 6 hrs and measured by FACS analysis; type: functional, cell-based
HeLa [2] = test: Cytotoxicity against human HeLa MKYP cells assessed as percentage of DAPI-positive cells at 50 uM and measured by DAPI staining method; type: toxicity, cell-based
HeLa [3] = test: Cytotoxicity against human HeLa MKYP cells assessed as cell death at 25 uM treated with FCCP/oliogmycin and measured DAPI staining method assay relative to control; type: toxicity, cell-based
HeLa [4] = test: Cytotoxicity against human HeLa MKYP cells assessed as cell death at 25 uM and measured DAPI staining method assay relative to control; type: toxicity, cell-based
[5] = Solubility of compound in PBS; type: physicochemical
[6] = Ratio of highest compound concentration with no observable mitotoxicity to EC50 of compound to induce mitophagy in human HeLa MKYP cells; type: functional
[7] = Induction of mitophagy in human HeLa MKYP cells treated at 6.3 uM with FCCP/oligomycin for 6 hrs and measured by FACS analysis relative to control; type: functional

O[C@@H]1Cc2ccccc2[C@@H]1Nc1ncnc2[nH]c(C(F)(F)F)cc12
EC50 [1]: 9 µM | Activity (HeLa [2]): 35.6% | Activity (HeLa [3]): 35.6% | Activity (HeLa [4]): 5.5%

Oc1ccc2c(c1)CCC[C@H]2Nc1ncnc2[nH]c(C(F)(F)F)cc12
EC50 [1]: 4.38 µM | Activity (HeLa [2]): 11% | Activity (HeLa [3]): 11% | Activity (HeLa [4]): 3.32%

N#Cc1cccc2c1CCCC2Nc1ncnc2[nH]c(C(F)(F)F)cc12 (centres undefined)
solubility [5]: 1 µM (≈ 0.357 µg/mL) | EC50 [1]: 2.98 µM | Activity (HeLa [2]): 71.2% | Activity (HeLa [3]): 71.2% | Activity (HeLa [4]): 57.1% | Ratio [6]: 8.39

Fc1ccc2c(c1)CCCC2Nc1ncnc2[nH]c(C(F)(F)F)cc12 (centres undefined)
solubility [5]: 1 µM (≈ 0.35 µg/mL) | EC50 [1]: 1.06 µM | Activity (HeLa [2]): 30.1% | Activity (HeLa [3]): 30.1% | Activity (HeLa [4]): 3.27%

COc1ccc2c(c1)CCCC2Nc1ncnc2[nH]c(C(F)(F)F)cc12 (centres undefined)
Activity [7]: 29.8% | Activity (HeLa [2]): 95.5%

O[C@H]1Cc2ccccc2[C@H]1Nc1ncnc2[nH]c(C(F)(F)F)cc12
EC50 [1]: > 50 µM | Activity (HeLa [2]): 21.2% | Activity (HeLa [3]): 21.2% | Activity (HeLa [4]): 2.75%

FC(F)(F)c1cc2c(NC3CCc4ccccc43)ncnc2[nH]1 (stereo in doubt; 17)
Activity ([7]; 6 h, 6.3 µM): 14.8% | Activity (HeLa [2]): 2.3%

CCCCNc1ncnc2[nH]c(CC(F)(F)F)cc12
Activity [7]: 13.9% | Activity (HeLa [2]): 24.8%

O[C@H]1Cc2ccccc2[C@@H]1Nc1ncnc2[nH]c(C(F)(F)F)cc12
EC50 [1]: 18.5 µM | Activity (HeLa [2]): 14.4% | Activity (HeLa [3]): 14.4% | Activity (HeLa [4]): 2.51% | Ratio [6]: 1.35

FC(F)(F)c1cc2c(NC3COc4ccccc43)ncnc2[nH]1 (centres undefined)
Activity [7]: 52.5% | Activity (HeLa [2]): 39.7%

CO[C@H]1COc2ccccc2[C@@H]1Nc1ncnc2[nH]c(C(F)(F)F)cc12
EC50 [1]: 4 µM | Activity (HeLa [2]): 15.9% | Activity (HeLa [3]): 15.865% | Activity (HeLa [4]): 3.66%

CC(=O)N1CCC(Nc2ncnc3[nH]c(C(F)(F)F)cc23)c2ccccc21 (centres undefined)
EC50 [1]: 17.3 µM | Activity (HeLa [2]): 6.9% | Activity (HeLa [3]): 6.92% | Activity (HeLa [4]): 2.69%

CO[C@H]1COc2ccccc2[C@H]1Nc1ncnc2[nH]c(C(F)(F)F)cc12
EC50 [1]: 13.3 µM | Activity (HeLa [2]): 3.6% | Activity (HeLa [3]): 3.555% | Activity (HeLa [4]): 2.49%

COc1ccc2c(c1)[C@@H](Nc1ncnc3[nH]c(C(F)(F)F)cc13)CCC2
EC50 [1]: 4 µM | Activity (HeLa [2]): 3.2% | Activity (HeLa [3]): 3.18% | Activity (HeLa [4]): 1.18%

CN(C)[C@H]1CCc2ccccc2[C@@H]1Nc1ncnc2[nH]c(C(F)(F)F)cc12
EC50 [1]: 0.81 µM | Activity (HeLa [2]): 79.3% | Activity (HeLa [3]): 79.29% | Activity (HeLa [4]): 4.33%

FC(F)(F)c1cc2c(NCc3ccccc3)ncnc2[nH]1
Activity [7]: 35.1% | Activity (HeLa [2]): 50.4%

CCCCNc1ncnc2[nH]c(CC)cc12
Activity [7]: 14% | Activity (HeLa [2]): 93.4%

CN1CC[C@H](Nc2ncnc3[nH]c(C(F)(F)F)cc23)c2ccccc21
EC50 [1]: 1.33 µM | Activity (HeLa [2]): 59% | Activity (HeLa [3]): 16% | Activity (HeLa [4]): 2.51% | Ratio [6]: 30

CC[C@@H]1CCc2ccccc2[C@@H]1Nc1ncnc2[nH]c(C(F)(F)F)cc12
EC50 [1]: 1.8 µM | Activity (HeLa [2]): 8.7% | Activity (HeLa [3]): 8.735% | Activity (HeLa [4]): 5.04% | Ratio [6]: 13.8

CCCCNc1ncnc2[nH]c(C(OCC)C(F)(F)F)cc12 (centres undefined)
Activity [7]: 17.9% | Activity (HeLa [2]): 15.8%

FC(F)(F)c1cc2c(NC3CCCc4ccccc43)ncnc2[nH]1 (stereo in doubt; 16)
Activity ([7]; 6 h, 6.3 µM): 10.1% | Activity (HeLa [2]): 4.5%

C[C@@H]1CCc2ccccc2[C@H]1Nc1ncnc2[nH]c(C(F)(F)F)cc12
solubility [5]: 1 µM (≈ 0.346 µg/mL) | EC50 [1]: 4.18 µM | Activity (HeLa [2]): 23.8% | Activity (HeLa [3]): 23.8% | Activity (HeLa [4]): 17.9%

FC(F)(F)c1cc2c(NC3CCc4ccccc43)ncnc2[nH]1 (stereo in doubt; 18)
Activity ([7]; 6 h, 6.3 µM): 14.3% | Activity (HeLa [2]): 1.7%

FC(F)(F)c1cc2c(N[C@@H]3CCOc4ccccc43)ncnc2[nH]1
EC50 [1]: 6.3 µM | Activity (HeLa [2]): 21.1% | Activity (HeLa [3]): 21% | Activity (HeLa [4]): 3.04% | Ratio [6]: 8.85

CCCCNc1ncnc2[nH]c(C)cc12
Activity [7]: 43.4% | Activity (HeLa [2]): 15.4%

OC[C@H]1CCc2ccccc2[C@@H]1Nc1ncnc2[nH]c(C(F)(F)F)cc12
EC50 [1]: 5.5 µM | Activity (HeLa [2]): 30.9% | Activity (HeLa [3]): 30.87% | Activity (HeLa [4]): 9.83%

CC(Nc1ncnc2[nH]c(C(F)(F)F)cc12)c1ccccc1 (centres undefined)
Activity [7]: 88.4% | Activity (HeLa [2]): 2.4%

c1ccc2c(c1)OCC[C@H]2Nc1ncnc2[nH]c(C3CC3)cc12
EC50 [1]: 1.98 µM | Activity (HeLa [2]): 17.3% | Activity (HeLa [3]): 17.3% | Activity (HeLa [4]): 7.26%

C[C@H]1CCc2ccccc2[C@H]1Nc1ncnc2[nH]c(C(F)(F)F)cc12
EC50 [1]: 1.1 µM | Activity (HeLa [2]): 12% | Activity (HeLa [3]): 12% | Activity (HeLa [4]): 6.45% | Ratio [6]: 7.74

CCCCNc1ncnc2[nH]c(-c3ccnn3C)cc12
Activity [7]: 15% | Activity (HeLa [2]): 94.6%

CO[C@H]1CCc2ccccc2[C@@H]1Nc1ncnc2[nH]c(C(F)(F)F)cc12
solubility [5]: 1.31 µM (≈ 0.475 µg/mL) | EC50 [1]: 1.48 µM | Activity (HeLa [2]): 7.7% | Activity (HeLa [3]): 7.67% | Activity (HeLa [4]): 5.15%

CC(C)(Nc1ncnc2[nH]c(C(F)(F)F)cc12)c1ccccc1
Activity [7]: 17% | Activity (HeLa [2]): 5.6%

CCCCNc1ncnc2[nH]c(C(F)(F)F)cc12
Activity [7]: 42.3% | Activity (HeLa [2]): 4.6%

CO[C@@H]1COc2ccccc2[C@H]1Nc1ncnc2[nH]c(C(F)(F)F)cc12
EC50 [1]: 6.3 µM | Activity (HeLa [2]): 10.6% | Activity (HeLa [3]): 10.645% | Activity (HeLa [4]): 2.61%

CO[C@@H]1CCc2ccccc2[C@H]1Nc1ncnc2[nH]c(C(F)(F)F)cc12
solubility [5]: 1 µM (≈ 0.362 µg/mL) | EC50 [1]: 22.1 µM | Activity (HeLa [2]): 18.4% | Activity (HeLa [3]): 18.4% | Activity (HeLa [4]): 15.3%

OC[C@@H]1CCc2ccccc2[C@H]1Nc1ncnc2[nH]c(C(F)(F)F)cc12
EC50 [1]: 1.1 µM | Activity (HeLa [2]): 59.5% | Activity (HeLa [3]): 59.535% | Activity (HeLa [4]): 27% | Ratio [6]: 7.25

CCCCNc1ncnc2[nH]c(-c3ccccc3)cc12
Activity [7]: 52% | Activity (HeLa [2]): 90%

O[C@@H]1Cc2ccccc2[C@H]1Nc1ncnc2[nH]c(C(F)(F)F)cc12
EC50 [1]: 15.1 µM | Activity (HeLa [2]): 7.6% | Activity (HeLa [3]): 7.59% | Activity (HeLa [4]): 2.35% | Ratio [6]: 1.66

FC(F)(F)c1cc2c(NC3CCN(Cc4ccccc4)CC3)ncnc2[nH]1
EC50 [1]: 21.4 µM | Activity (HeLa [2]): 43.9%

OC1CCc2ccccc2C1Nc1ncnc2[nH]c(C(F)(F)F)cc12 (centres undefined)
solubility [5]: 1 µM (≈ 0.348 µg/mL) | EC50 [1]: > 50 µM | Activity (HeLa [2]): 12.8% | Activity (HeLa [3]): 12.8% | Activity (HeLa [4]): 3.79%

FC(F)(F)c1cc2c(NC3(c4ccccc4)CC3)ncnc2[nH]1
Activity [7]: 20.8% | Activity (HeLa [2]): 80.5%

CO[C@@H]1COc2ccccc2[C@@H]1Nc1ncnc2[nH]c(C(F)(F)F)cc12
EC50 [1]: 1.6 µM | Activity (HeLa [2]): 12.1% | Activity (HeLa [3]): 12.11% | Activity (HeLa [4]): 3.4%

C[C@@H](Nc1ncnc2[nH]c(C3CC3)nc12)c1ccccc1
EC50 [1]: > 50 µM | Activity (HeLa [2]): 12.3%

COc1ncc(CNc2ncnc3[nH]c(C(F)(F)F)cc23)cn1
EC50 [1]: 10.6 µM | Activity (HeLa [2]): 5.8%

c1ccc(CCNc2ncnc3[nH]cnc23)cc1
EC50 [1]: 2.26 µM | Activity (HeLa [2]): 19.7%

Source: ChEMBL document CHEMBL5050850, “Compositions and methods of using the same for treatment of neurodegenerative and mitochondrial disease” (2020)
